Reference: ChEMBL document CHEMBL1201862, “PubChem BioAssay data set” (2004)
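Each compound was tested at five concentrations against cells in 96-well plates for 48 hours. GI50 = concentration required for 50% inhibition of growth.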 The source made the active and inactive calls. No stated cut-off is given here; in the data, active = GI50 up to about 1.1 µM and inactive = higher.

Columns and labels:
Assay in all cases: NCI tumour cell line growth inhibition, 48 h
786-0 = system: 786-0
A498 = system: A498
A549 = system: A549
ACHN = system: ACHN
BT-549 = system: BT-549
CAKI-1 = system: CAKI-1
CCRF-CEM = system: CCRF-CEM
COLO 205 = system: COLO 205
DLD-1 = system: DLD-1
DMS-114 = system: DMS-114
DU-145 = system: DU-145
EKVX = system: EKVX
HCC 2998 = system: HCC 2998
HCT-116 = system: HCT-116
HCT-15 = system: HCT-15
HL-60 = system: HL-60
HOP-18 = system: HOP-18
HOP-62 = system: HOP-62
HOP-92 = system: HOP-92
HT-29 = system: HT-29
Hs-578T = system: Hs-578T
IGROV-1 = system: IGROV-1
K562 = system: K562
KM-20L2 = system: KM-20L2
KM12 = system: KM12
LOX IMVI = system: LOX IMVI
LXFL 529 = system: LXFL 529
M14 = system: M14
M19-MEL = system: M19-MEL
MCF7 = system: MCF7
MDA-MB-231 = system: MDA-MB-231
MDA-MB-435 = system: MDA-MB-435
MDA-N = system: MDA-N
MOLT-4 = system: MOLT-4
Malme-3M = system: Malme-3M
NCI-H226 = system: NCI-H226
NCI-H23 = system: NCI-H23
NCI-H460 = system: NCI-H460
NCI-H522 = system: NCI-H522
NCI/ADR-RES = system: NCI/ADR-RES
OVCAR-3 = system: OVCAR-3
OVCAR-4 = system: OVCAR-4
OVCAR-5 = system: OVCAR-5
OVCAR-8 = system: OVCAR-8
PC-3 = system: PC-3
RPMI-8226 = system: RPMI-8226
RXF 393 = system: RXF 393
RXF 631 = system: RXF 631
SF-268 = system: SF-268
SF-295 = system: SF-295
SF-539 = system: SF-539
SK-MEL-28 = system: SK-MEL-28
SK-MEL-2 = system: SK-MEL-2
SK-MEL-5 = system: SK-MEL-5
SK-OV-3 = system: SK-OV-3
SN12C = system: SN12C
SNB-19 = system: SNB-19
SNB-75 = system: SNB-75
SNB-78 = system: SNB-78
SR = system: SR
SW-620 = system: SW-620
T47D = system: T47D
TK-10 = system: TK-10
U-251 = system: U-251
UACC-257 = system: UACC-257
UACC-62 = system: UACC-62
UO-31 = system: UO-31
DMS-273 = system: DMS-273

In the case of `c1ccc(CN2COc3c(ccc4c5c(ccc34)CN(Cc3ccccc3)CO5)C2)cc1`, the GI50 (786-0) was > 100 µM (inactive), the GI50 (A498) was > 100 µM (inactive) and the GI50 (A549) was > 100 µM (inactive). For the same molecule, the GI50 (ACHN) was > 100 µM (inactive), the GI50 (BT-549) was > 100 µM (inactive) and the GI50 (CAKI-1) was > 100 µM (inactive). The GI50 (CCRF-CEM) was > 100 µM (inactive), the GI50 (COLO 205) was > 100 µM (inactive) and the GI50 (DLD-1) was > 100 µM (inactive). For the same molecule, the GI50 (DMS-114) was > 100 µM (inactive), the GI50 (DU-145) was > 100 µM (inactive) and the GI50 (EKVX) was > 100 µM (inactive). For the same molecule, the GI50 (HCC 2998) was > 100 µM (inactive), the GI50 (HCT-116) was > 100 µM (inactive) and the GI50 (HCT-15) was over 100 µM. The GI50 (HL-60) was > 100 µM (inactive), the GI50 (HOP-18) was 52 µM (inactive) and the GI50 (HOP-62) was > 100 µM (inactive). For the same molecule, the GI50 (HOP-92) was > 100 µM (inactive), the GI50 (HT-29) was > 100 µM (inactive) and the GI50 (Hs-578T) was > 100 µM (inactive). The GI50 (IGROV-1) was > 100 µM (inactive), the GI50 (K562) was > 100 µM (inactive) and the GI50 (KM-20L2) was 26.2 µM (inactive). The GI50 (KM12) was > 100 µM (inactive), the GI50 (LOX IMVI) was > 100 µM (inactive) and the GI50 (LXFL 529) was > 100 µM (inactive). For the same molecule, the GI50 (M14) was > 100 µM (inactive), the GI50 (M19-MEL) was > 100 µM (inactive) and the GI50 (MCF7) was > 100 µM (inactive). For the same molecule, the GI50 (MDA-MB-231) was > 100 µM (inactive), the GI50 (MDA-MB-435) was > 100 µM (inactive) and the GI50 (MDA-N) was > 100 µM (inactive). The GI50 (MOLT-4) was > 100 µM (inactive), the GI50 (Malme-3M) was > 100 µM (inactive) and the GI50 (NCI-H226) was > 76.6 µM (inactive). The GI50 (NCI-H23) was > 100 µM (inactive), the GI50 (NCI-H460) was > 100 µM (inactive) and the GI50 (NCI-H522) was > 100 µM (inactive). For the same molecule, the GI50 (NCI/ADR-RES) was > 100 µM (inactive), the GI50 (OVCAR-3) was > 100 µM (inactive) and the GI50 (OVCAR-4) was > 100 µM (inactive). The GI50 (OVCAR-5) was > 100 µM (inactive), the GI50 (OVCAR-8) was > 100 µM (inactive) and the GI50 (PC-3) was > 100 µM (inactive). For the same molecule, the GI50 (RPMI-8226) was > 100 µM (inactive), the GI50 (RXF 393) was > 100 µM (inactive) and the GI50 (RXF 631) was > 100 µM (inactive). The GI50 (SF-268) was > 100 µM (inactive), the GI50 (SF-295) was > 100 µM (inactive) and the GI50 (SF-539) was > 100 µM (inactive). For the same molecule, the GI50 (SK-MEL-28) was > 100 µM (inactive), the GI50 (SK-MEL-2) was > 100 µM (inactive) and the GI50 (SK-MEL-5) was > 100 µM (inactive). For the same molecule, the GI50 (SK-OV-3) was > 100 µM (inactive), the GI50 (SN12C) was > 100 µM (inactive) and the GI50 (SNB-19) was > 100 µM (inactive). The GI50 (SNB-75) was > 100 µM (inactive), the GI50 (SNB-78) was > 100 µM (inactive) and the GI50 (SR) was > 100 µM (inactive). For the same molecule, the GI50 (SW-620) was > 100 µM (inactive), the GI50 (T47D) was > 100 µM (inactive) and the GI50 (TK-10) was > 100 µM (inactive). For the same molecule, the GI50 (U-251) was > 100 µM (inactive), the GI50 (UACC-257) was > 100 µM (inactive) and the GI50 (UACC-62) was > 100 µM (inactive). The GI50 (UO-31) was > 100 µM (inactive).

`CS/C(=N\c1nccs1)NC(=O)c1cccc(Cl)c1` was tested, and the GI50 (786-0) was > 100 µM (inactive), the GI50 (A498) was 81.8 µM (inactive) and the GI50 (A549) was > 100 µM (inactive). For the same molecule, the GI50 (ACHN) was > 100 µM (inactive), the GI50 (CAKI-1) was 50.5 µM (inactive) and the GI50 (CCRF-CEM) was 72.6 µM (inactive). The GI50 (COLO 205) was 46.1 µM (inactive), the GI50 (DLD-1) was > 100 µM (inactive) and the GI50 (DMS-114) was > 100 µM (inactive). For the same molecule, the GI50 (DMS-273) was > 100 µM (inactive), the GI50 (EKVX) was 19 µM (inactive) and the GI50 (HCC 2998) was > 100 µM (inactive). For the same molecule, the GI50 (HCT-116) was > 100 µM (inactive), the GI50 (HCT-15) was 24.9 µM and the GI50 (HL-60) was 56.8 µM (inactive). The GI50 (HOP-18) was > 100 µM (inactive), the GI50 (HOP-62) was > 100 µM (inactive) and the GI50 (HOP-92) was 71.3 µM (inactive). For the same molecule, the GI50 (HT-29) was > 100 µM (inactive), the GI50 (IGROV-1) was > 100 µM (inactive) and the GI50 (K562) was > 100 µM (inactive). For the same molecule, the GI50 (KM-20L2) was > 100 µM (inactive), the GI50 (KM12) was > 100 µM (inactive) and the GI50 (LOX IMVI) was 83.6 µM (inactive). For the same molecule, the GI50 (LXFL 529) was 91 µM (inactive), the GI50 (M14) was > 100 µM (inactive) and the GI50 (M19-MEL) was 85.9 µM (inactive). For the same molecule, the GI50 (MOLT-4) was 31 µM (inactive), the GI50 (Malme-3M) was > 100 µM (inactive) and the GI50 (NCI-H226) was > 100 µM (inactive). The GI50 (NCI-H23) was > 100 µM (inactive), the GI50 (NCI-H460) was > 100 µM (inactive) and the GI50 (NCI-H522) was 34.4 µM (inactive). The GI50 (OVCAR-3) was 75.2 µM (inactive), the GI50 (OVCAR-4) was 68.1 µM (inactive) and the GI50 (OVCAR-5) was > 100 µM (inactive). The GI50 (OVCAR-8) was > 100 µM (inactive), the GI50 (RPMI-8226) was 97.7 µM (inactive) and the GI50 (RXF 393) was > 100 µM (inactive). For the same molecule, the GI50 (RXF 631) was 16.8 µM (inactive), the GI50 (SF-268) was > 100 µM (inactive) and the GI50 (SF-295) was 77.8 µM (inactive). For the same molecule, the GI50 (SF-539) was > 100 µM (inactive), the GI50 (SK-MEL-28) was > 100 µM (inactive) and the GI50 (SK-MEL-2) was > 100 µM (inactive). The GI50 (SK-MEL-5) was > 100 µM (inactive), the GI50 (SK-OV-3) was > 100 µM (inactive) and the GI50 (SN12C) was 79.4 µM (inactive). The GI50 (SNB-19) was > 100 µM (inactive), the GI50 (SNB-75) was 49.5 µM (inactive) and the GI50 (SNB-78) was > 100 µM (inactive). The GI50 (SR) was 24.6 µM (inactive), the GI50 (SW-620) was > 100 µM (inactive) and the GI50 (TK-10) was 73.5 µM (inactive). The GI50 (U-251) was 72.1 µM (inactive), the GI50 (UACC-257) was > 100 µM (inactive) and the GI50 (UACC-62) was > 100 µM (inactive). For the same molecule, the GI50 (UO-31) was 62.4 µM (inactive).
